# Data: PMC9597602, “Metal Complexes as Antifungals? From a Crowd-Sourced Compound Library to the First In Vivo Experiments” (JACS Au, 2022)
# Where “and” joins values, the source holds several entries; their conditions need not be identical. Equal entries are not always repeated. Where two headings read alike, the source gives them in different places.
# Columns and labels:
# [1] = test system: Candida albicans ATCC 90028 NCCLS11; assay: Antifungal MIC assay; type: cell-based; conditions: for MIC: Candida albicans, ATCC90028, comparator antifungals, read-out: MIC* Candida albicans ATCC 90028
# Experimental: For the fungal assays, both fungi (yeast) strains were cultured for 3 days on Yeast Extract-Peptone Dextrose (YPD; Becton Dickinson 242720) agar at 30 °C. A yeast suspension of 1 × 10^6 to 5 × 10^6 CFU/mL (as determined by OD530) was prepared from five colonies from the agar plates, subsequently diluted with Yeast Nitrogen Base media (YNB; Becton Dickinson 233520), and added to each well of the compound containing plates (384-well plates, NBS; Corning CLS3640), giving a final cell density of 2.5 × 10^3 CFU/mL and a total volume of 50 μL. Plates were covered and incubated at 35 °C for 36 h without shaking. […] […], equivalent to ″optically clear-to-slightly hazy″ or MIC score of 0–1 as per CLSI guidelines M27 Reference Method for Broth Dilution Antifungal Susceptibility Testing of Yeasts. […] Fluconazole (Sigma F8929) was used as internal control on each plate for all strains. All compounds were tested as two technical replicates in two to four independent biological assays, n = 4–8 final data.
# [2] = test system: Cryptococcus neoformans H99 ATCC 208821 type strain; assay: Antifungal MIC assay; type: cell-based; conditions: for MIC: Cryptococcus neoformans, ATCC208821, read-out: MIC* Cryptococcus neoformans ATCC 208821
# Experimental: For the fungal assays, both fungi (yeast) strains were cultured for 3 days on Yeast Extract-Peptone Dextrose (YPD; Becton Dickinson 242720) agar at 30 °C. A yeast suspension of 1 × 10^6 to 5 × 10^6 CFU/mL (as determined by OD530) was prepared from five colonies from the agar plates, subsequently diluted with Yeast Nitrogen Base media (YNB; Becton Dickinson 233520), and added to each well of the compound containing plates (384-well plates, NBS; Corning CLS3640), giving a final cell density of 2.5 × 10^3 CFU/mL and a total volume of 50 μL. Plates were covered and incubated at 35 °C for 36 h without shaking. […] MIC values were recorded as the lowest concentration at which the growth was inhibited by ≥80%, equivalent to ″optically clear-to-slightly hazy″ or MIC score of 0–1 as per CLSI guidelines M27 Reference Method for Broth Dilution Antifungal Susceptibility Testing of Yeasts. […] Fluconazole (Sigma F8929) was used as internal control on each plate for all strains. All compounds were tested as two technical replicates in two to four independent biological assays, n = 4–8 final data.
# [3] = test system: Candida auris CBS10913 JCM 15448; assay: Antifungal MIC assay, extended panel; type: cell-based; conditions: Candidozyma auris, comparator antifungals, read-out: MIC* Candida auris CBS10913
# Experimental: (§1) For the fungal assays, both fungi (yeast) strains were cultured for 3 days on Yeast Extract-Peptone Dextrose (YPD; Becton Dickinson 242720) agar at 30 °C. A yeast suspension of 1 × 10^6 to 5 × 10^6 CFU/mL (as determined by OD530) was prepared from five colonies from the agar plates, subsequently diluted with Yeast Nitrogen Base media (YNB; Becton Dickinson 233520), and added to each well of the compound containing plates (384-well plates, NBS; Corning CLS3640), giving a final cell density of 2.5 × 10^3 CFU/mL and a total volume of 50 μL. Plates were covered and incubated at 35 °C for 36 h without shaking. […] MIC […] Reference Method for Broth Dilution Antifungal Susceptibility Testing of Yeasts. […] Fluconazole (Sigma F8929) was used as internal control on each plate for all strains. All compounds were tested as two technical replicates in two to four independent biological assays, n = 4–8 final data.
# [4] = test system: Candida auris CBS12373 KCTC 17810; assay: Antifungal MIC assay, extended panel; type: cell-based; conditions: Candidozyma auris, comparator antifungals, read-out: MIC* Candida auris CBS12373
# Experimental: as §1
# [5] = test system: Acinetobacter baumannii ATCC 19606 type strain; assay: CO-ADD antibacterial MIC assay; type: cell-based
# Experimental: (§2) For the all the bacterial assays, each bacterial strain was cultured in cation-adjusted Mueller Hinton broth (CAMHB; Bacto Laboratories 212322) at 37 °C overnight. A sample of each culture was then diluted 40-fold in fresh CAMHB and incubated at 37 °C for 1.5–3 h. The resultant mid-log phase cultures were diluted with CAMHB (CFU/mL measured by OD600) and then added to each well of the compound-containing plates (384-well non-binding surface (NBS) plates; Corning CLS3640), giving a cell density of 5 × 10^5 CFU/mL and a total volume of 50 μL. Plates were covered and incubated at 37 °C for 18 h without shaking. Inhibition of bacterial growth was determined by measuring the absorbance at 600 nm (OD600) using media only as negative control and bacteria without inhibitors as positive control. MIC values were determined as the lowest concentration at which the growth was inhibited by ≥80% (equivalent to no visible growth by the eye). Colistin sulfate (Sigma C4461) and vancomycin HCl (Sigma 861987) were used as internal controls on each plate for Gram-negative and Gram-positive bacteria, respectively. All compounds were tested as two technical replicates in two independent biological assays, n = 4 final data.
# [6] = test system: Escherichia coli ATCC 25922 FDA control strain; assay: CO-ADD antibacterial MIC assay; type: cell-based
# Experimental: as §2
# [7] = test system: Pseudomonas aeruginosa ATCC 27853 QC control strain; assay: CO-ADD antibacterial MIC assay; type: cell-based
# Experimental: as §2
# [8] = test system: methicillin-resistant Staphylococcus aureus ATCC 43300; assay: CO-ADD antibacterial MIC assay; type: cell-based
# Experimental: as §2
# [9] = test system: HEK-293 human embryonic kidney cells ATCC CRL-1573
# Experimental: The cells were incubated together with the compounds for 20 h at 37 °C in 5% CO2. […] Tamoxifen (Sigma T5648) was used as internal control on each plate.
# human red blood cells = type: cell-based; conditions: initial CO-ADD screening, 1 h; 10% hemolysis
# Experimental: Human whole blood (Australian Red Cross) was washed three times with 3 vol of 0.9% NaCl and resuspended in a concentration of 0.5 × 10^8 cells/mL, determined by a manual cell count in a Neubauer hemocytometer. […] After incubation, the plates were centrifuged at 1000g for 10 min to pellet cells and debris; 25 μL of the supernatant was then transferred to reading plates (384-well, polystyrene plated (PS), Corning CLS3680), with hemolysis determined by measuring the supernatant absorbance at […] (OD405) using cells without inhibitors as negative control and cells with 1% Triton X-100 (Sigma T8787) as positive control. […] Melittin (Sigma M2272) was used as internal control on each plate.
# [10] = ≥80% inhibition, converted with MW of Table S12
# [11] = initial CO-ADD dose-response screening, ≥80% growth inhibition
# [12] = single concentration (32 µg/mL) CO-ADD Primary Screening, no inhibition, no dose-response
# [13] = read-out: HEK CC50, initial CO-ADD screening, 20 h
Compound,"MIC Ab [5, 11]","MIC Ec [6, 11]","MIC Pa [7, 11]","MIC MRSA (Sa) [8, 11]","MIC Ca [1, 11]","MIC Cn [2, 11]",RBC HC10 (human red blood cells),other results
"CC(=O)N1CCN(c2ccc(OCC3COC(Cn4ccnc4)(c4ccc(Cl)cc4Cl)O3)cc2)CC1 (stereo not shown) [Ketoconazole, reference compound]",–,–,–,–,–,–,–,"MIC ([1]; MIC = ≥80% inhibition): 0.002 to 0.004 mg/L; MIC [1, 10]: 0.005 to 0.01 µM; MIC [2]: > 64 µg/mL and > 170 µM; MIC ([3]; MIC = ≥80% inhibition): 0.004 to 0.016 mg/L; MIC [3, 10]: 0.01 to 0.042 µM; MIC ([4]; MIC = ≥80% inhibition): ≤ 0.004 mg/L; MIC [4, 10]: ≤ 0.01 µM"
Cc1cccc2[n+]1[Pd-2]([Cl])([Cl])[n+]1c(C)cccc1C(c1ccccc1)=C=C2c1ccccc1 [HM_C1],> 32 mg/L,> 32 mg/L,> 32 mg/L,2 mg/L,16 mg/L,1 mg/L,> 32 µg/mL,"HEK CC50 ([9]; initial CO-ADD screening, 20 h): 1.0 mg/L"
Cc1cccc2[n+]1[Au-]([Cl])([Cl])[n+]1c(C)cccc1C(C(C)(C)C)=C=C2c1ccccc1.[Cl-] [Au-S12],> 32 mg/L,> 32 mg/L,> 32 mg/L,16 mg/L,4 mg/L,<= 0.25 μg/mL,<= 0.25 μg/mL,"HEK CC50 ([9]; initial CO-ADD screening, 20 h): > 32 mg/L"
O=C(O)c1ccc(N2N=C(/C=C/c3ccccc3)CC2c2ccccc2)cc1 (racemic) [Ligand-Ag3],–,–,–,–,–,–,–,"MIC Ab [5, 12]: > 32 mg/L; MIC Ec [6, 12]: > 32 mg/L; MIC Pa [7, 12]: > 32 mg/L; MIC MRSA (Sa) [8, 12]: > 32 mg/L; MIC Ca [1, 12]: > 32 mg/L; MIC Cn [2, 12]: > 32 mg/L"
Nc1cc2cccnc2c2ncccc12.O=C([O][Eu]([O]C(=O)c1ccccc1F)[O]C(=O)c1ccccc1F)c1ccccc1F [Eu-S4],> 20 µM,> 20 µM,> 20 µM,> 20 µM,> 20 µM,20 µM,1.2 µM,"CC50 [9, 13]: 3.3 µM"
CC1=CC=CC2=C(c3ccccc3)[C](=[Au]([Cl])([Cl])[Cl])C(c3ccccc3)(c3cccc(C)n3)N12 (stereo not shown) [Au-S13],32 mg/L,16 mg/L,> 32 mg/L,<= 0.25 μg/mL,2 mg/L,<= 0.25 μg/mL,19.3 µg/mL,"HEK CC50 ([9]; initial CO-ADD screening, 20 h): > 32 mg/L"
FC(F)(F)c1ccnc([S][Au][PH](c2ccccc2)(c2ccccc2)c2ccccc2)n1 [Au-S6],–,–,–,0.25 mg/L,–,–,–,–
c1ccc([S][Au][PH](c2ccco2)(c2ccco2)c2ccco2)nc1 [Au-S1],–,–,–,16 mg/L,16 mg/L,16 mg/L,–,–
Cc1cccc(C2(c3ccccc3)[C]([Au-][Cl])=C(c3ccccc3)c3cccc(C)[n+]32)n1 (stereo not shown) [Au-S14],32 mg/L,> 32 mg/L,> 32 mg/L,<= 0.25 μg/mL,<= 0.25 μg/mL,<= 0.25 μg/mL,23.7 µg/mL,"HEK CC50 ([9]; initial CO-ADD screening, 20 h): 0.7 mg/L"
COc1ccc(/C=C/C2=NN(c3ccc(C(=O)O)cc3)C(c3ccc(OC)c(OC)c3)C2)cc1OC (racemic) [Ligand-Ag1],–,–,–,–,–,–,–,"MIC Ab [5, 12]: > 32 mg/L; MIC Ec [6, 12]: > 32 mg/L; MIC Pa [7, 12]: > 32 mg/L; MIC MRSA (Sa) [8, 12]: > 32 mg/L; MIC Ca [1, 12]: > 32 mg/L; MIC Cn [2, 12]: > 32 mg/L"
FC(F)(F)c1ccnc([S][Au][PH](c2ccco2)(c2ccco2)c2ccco2)n1 [Au-S3],–,–,–,0.25 mg/L,–,–,–,–
O=C(O)c1ccc(N2N=C(/C=C/C=C/c3ccccc3)CC2/C=C/c2ccccc2)cc1 (racemic) [Ligand-Ag2],–,–,–,–,–,–,–,"MIC Ab [5, 12]: > 32 mg/L; MIC Ec [6, 12]: > 32 mg/L; MIC Pa [7, 12]: > 32 mg/L; MIC MRSA (Sa) [8, 12]: > 32 mg/L; MIC Ca [1, 12]: > 32 mg/L; MIC Cn [2, 12]: > 32 mg/L"
O=C([O][Eu]([O]C(=O)c1cc(F)ccc1F)[O]C(=O)c1cc(F)ccc1F)c1cc(F)ccc1F.c1ccc(-c2ccnc3c2ccc2c(-c4ccccc4)ccnc23)cc1 [Eu-S1],> 20 µM,> 20 µM,> 20 µM,10 µM,> 20 µM,5 µM,> 20 µM,"CC50 [9, 13]: > 20 µM"
"C[C@@H](c1ncncc1F)[C@](O)(Cn1cncn1)c1ccc(F)cc1F [Voriconazole, reference compound]",–,–,–,–,–,–,–,"MIC ([1]; MIC = ≥80% inhibition): 0.008 mg/L; MIC [1, 10]: 0.032 µM; MIC [2]: ≥ 64 µg/mL and ≥ 260 µM; MIC ([3]; MIC = ≥80% inhibition): 0.004 to 0.008 mg/L; MIC [3, 10]: 0.016 to 0.032 µM; MIC ([4]; MIC = ≥80% inhibition): 0.156 mg/L; MIC [4, 10]: 0.447 µM"
Cc1ccnc([S][Au][PH](c2ccco2)(c2ccco2)c2ccco2)n1 [Au-S2],–,–,–,–,–,–,–,"HEK CC50 ([9]; initial CO-ADD screening, 20 h): 1.38 mg/L"
CC1=C(C)C(C)C(c2ccc(-c3ccccc3)cc2)=C1C.Cc1ccccc1NC1=[N][Ir]([Cl])[NH]C(NS(=O)(=O)c2ccc([N+](=O)[O-])cc2)=N1 [Ir2],–,–,–,–,–,–,–,"CC50 ([9]; read-out: HEK293 CC50, ranges obtained upon retesting, new batch): 62 to 65 µM"
Cn1ccn(Cc2ccccc2)[c]1=[Au]1[S][Mo]2([S]1)[S][Au](=[c]1n(C)ccn1Cc1ccccc1)[S]2 (stereo not shown) [Au-S10],–,–,–,–,0.25 mg/L,–,–,–
